A value given as a limit tells only on which side of the number the result lay.

The text below walks through data of article PMC12345137 (mBio, 2025).

One test addresses SA AgrC-III (Staphylococcus aureus, UniProt O33590). As to conditions: 100 nM cognate AIP; ± SEM; -b = no inhibition recorded at the highest AIP concentration tested; determined previously; ref (1); read-out: IC50, SA AgrC-III, b-lactamase assay; cited from earlier work.
A further test deals with S. aureus agr-I (Staphylococcus aureus, UniProt O07911). In words: Fluorescence reporter assay for agr interference, screening and IC50 (AH1677, P3-YFP). As to conditions: fluorescent reporter strain; peptides tested at 1000, 50, 2.5, 0.125 nM or in dose-response. Type of test: cell-based. The protocol:
(§1) Peptides were evaluated for the ability to interfere with agr-mediated quorum sensing in S. aureus (AH1677, AH430, AH1747, and AH1872 for agr-I–IV, respectively) ([40]) using reporter strains expressing yellow fluorescent protein (YFP) upon agr activation. Interference with agr-mediated quorum sensing in S. epidermidis (AH3408, AH3623, and AH3409 for agr-I–III, respectively) ([45]), and S. lugdunensis (AH4031 for agr-I) ([37]) was evaluated using reporter strains expressing superfolder green fluorescent protein (sGFP) upon agr activation. Overnight cultures of the reporter strains were grown in TSB medium containing chloramphenicol (CAM, 10 μg/mL for S. aureus) or erythromycin (ERM, 10 μg/mL of S. epidermidis and S. lugdunensis) and diluted 1:100 in fresh TSB medium containing the same antibiotic. Assays were performed in sterile black 96-well plates with a clear bottom. […] DMSO stock solutions of peptides (1 mM) were diluted in TSB media and added (15 μL) in technical triplicate to the 96-well plate, followed by diluted bacterial overnight cultures (135 μL). […] Wells containing 150 μL TSB medium were used to measure background fluorescence. The 96-well plates were incubated in a humidified incubator at 37°C shaking at 1,000 rpm for 22–24 h and fluorescence (for GFP: excitation 479 nm, emission 520 nm; for YFP: excitation 500 nm, emission 541 nm; automatic gain), and OD600 values were subsequently measured using a plate reader. Background fluorescence was subtracted from all wells and further normalized to the corresponding OD600 value of the respective wells. The average fluorescence of control wells was used as a relative measure for 100% activation of the agr-circuit, and bar graphs were generated using GraphPad Prism 10.4 software. All assays were performed in at least a biological duplicate.
(§2) Overnight cultures of the reporter strains were grown in TSB medium containing chloramphenicol (CAM, 10 μg/mL for S. aureus) or erythromycin (ERM, 10 μg/mL of S. epidermidis and S. lugdunensis) and diluted 1:100 in fresh TSB medium containing the same antibiotic. Assays were performed in sterile black 96-well plates with clear bottoms. Peptide solutions (15 μL) in 1:5 serial dilutions from DMSO stock solutions (1 mM) in TSB medium were added to the 96-well plate in technical duplicate followed by diluted bacterial overnight cultures (135 μL). […] Wells containing 150 μL TSB medium were used to measure background fluorescence. The 96-well plates were incubated in a humidified incubator at 37°C shaking at 1,000 rpm for 22–24 h and fluorescence (for GFP: excitation 479 nm, emission 520 nm; for YFP: excitation 500 nm, emission 541 nm; automatic gain), and OD600 values were subsequently measured using a plate reader. Background fluorescence was subtracted from all wells and further normalized to the corresponding OD600 value of the respective wells. The average fluorescence of control wells was used as a relative measure for 100% activation of the agr-circuit. Relative agr activity was plotted to obtain IC50 values by non-linear regression with variable slope using GraphPad Prism 10.4 software. All assays were performed in biological triplicate.
(In a reporter assay the amount or activity of a reporter protein is the signal.)

Another test addresses S. epidermidis agr-II (Staphylococcus epidermidis, UniProt Q8VSX5). Put plainly: cell-based. Type of test: cell-based. Particulars: fluorescent reporter strain; peptides tested at 1000, 50, 2.5, 0.125 nM or in dose-response. An outline of the steps: (§3)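 37°C, 1,000 rpm, 22–24 h in TSB + CAM or ERM (10 μg/mL); 1:5 serial peptide dilutions from 1 mM DMSO stocks; fluorescence (GFP ex 479/em 520, YFP ex 500/em 541) minus blank, ÷OD600, % of untreated control; IC50 by variable-slope fit.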

Another test has as its target S. epidermidis agr-III (Staphylococcus epidermidis, UniProt Q8VSX2). In words: cell-based. In kind it is cell-based. As to conditions: fluorescent reporter strain; peptides tested at 1000, 50, 2.5, 0.125 nM or in dose-response. An outline of the steps: as §3
The target in the next test is S. aureus agr-IV (Staphylococcus aureus, UniProt Q309Z2). In words: cell-based. In kind it is cell-based. As to conditions: fluorescent reporter strain; peptides tested at 1000, 50, 2.5, 0.125 nM or in dose-response. The method, boiled down: as §3
In the next test the target is S. epidermidis agr-I (Staphylococcus epidermidis, UniProt Q5HMY3). In words: cell-based. In kind it is cell-based. As to conditions: fluorescent reporter strain; peptides tested at 1000, 50, 2.5, 0.125 nM or in dose-response. The protocol:
as §1, §2

The target of another test is SA AgrC-IV (Staphylococcus aureus, UniProt Q309Z2). Particulars: 100 nM cognate AIP; ± SEM; -b = no inhibition recorded at the highest AIP concentration tested; determined previously; ref (1); read-out: IC50, SA AgrC-IV, b-lactamase assay; cited from earlier work.
The target in a further test is SA AgrC-II (Staphylococcus aureus, UniProt O33587). As to conditions: 100 nM cognate AIP; ± SEM; -b = no inhibition recorded at the highest AIP concentration tested; determined previously; ref (1); read-out: IC50, SA AgrC-II, b-lactamase assay; cited from earlier work.
A further test has as its target S. lugdunensis agr-I (Staphylococcus lugdunensis, UniProt Q8VSW5). Put plainly: cell-based. As to conditions: fluorescent reporter strain; peptides tested at 1000, 50, 2.5, 0.125 nM or in dose-response. The protocol:
as §1, with “μL). Control wells for 100% agr activity were wells replacing the peptide solution with TSB medium (15 μL).” for “μL).”
(§4) Overnight cultures of the reporter strains were grown in TSB medium containing chloramphenicol (CAM, 10 μg/mL for S. aureus) or erythromycin (ERM, 10 μg/mL of S. epidermidis and S. lugdunensis) and diluted 1:100 in fresh TSB medium containing the same antibiotic. Assays were performed in sterile black 96-well plates with clear bottoms. Peptide solutions (15 μL) in 1:5 serial dilutions from DMSO stock solutions (1 mM) in TSB medium were added to the 96-well plate in technical duplicate followed by diluted bacterial overnight cultures (135 μL). Control wells for 100% agr activity were wells replacing the peptide solution with TSB medium (15 μL). Wells containing 150 μL TSB medium were used to measure background fluorescence. The 96-well plates were incubated in a humidified incubator at 37°C shaking at 1,000 rpm for 22–24 h and fluorescence (for GFP: excitation 479 nm, emission 520 nm; for YFP: excitation 500 nm, emission 541 nm; automatic gain), and OD600 values were subsequently measured using a plate reader. Background fluorescence was subtracted from all wells and further normalized to the corresponding OD600 value of the respective wells. The average fluorescence of control wells was used as a relative measure for 100% activation of the agr-circuit. Relative agr activity was plotted to obtain IC50 values by non-linear regression with variable slope using GraphPad Prism 10.4 software. All assays were performed in biological triplicate.

The next test deals with S. aureus agr-II (Staphylococcus aureus, UniProt O33587). Put plainly: cell-based. Particulars: fluorescent reporter strain; peptides tested at 1000, 50, 2.5, 0.125 nM or in dose-response. The procedure:
as §1, with “μL). Control wells for 100% agr activity were wells replacing the peptide solution with TSB medium (15 μL).” for “μL).”
as §4

A further test deals with S. aureus agr-III (Staphylococcus aureus, UniProt O33590). In words: cell-based. Particulars: fluorescent reporter strain; peptides tested at 1000, 50, 2.5, 0.125 nM or in dose-response. The procedure:
as §1, with “μL). Control wells for 100% agr activity were wells replacing the peptide solution with TSB medium (15 μL).” for “μL).”
as §4

A further test deals with SA AgrC-I (Staphylococcus aureus, UniProt O07911). As to conditions: 100 nM cognate AIP; ± SEM; -b = no inhibition recorded at the highest AIP concentration tested; determined previously; ref (1); read-out: IC50, SA AgrC-I, b-lactamase assay; cited from earlier work.
Chain of SA AgrC-I (O07911 entry or part of it): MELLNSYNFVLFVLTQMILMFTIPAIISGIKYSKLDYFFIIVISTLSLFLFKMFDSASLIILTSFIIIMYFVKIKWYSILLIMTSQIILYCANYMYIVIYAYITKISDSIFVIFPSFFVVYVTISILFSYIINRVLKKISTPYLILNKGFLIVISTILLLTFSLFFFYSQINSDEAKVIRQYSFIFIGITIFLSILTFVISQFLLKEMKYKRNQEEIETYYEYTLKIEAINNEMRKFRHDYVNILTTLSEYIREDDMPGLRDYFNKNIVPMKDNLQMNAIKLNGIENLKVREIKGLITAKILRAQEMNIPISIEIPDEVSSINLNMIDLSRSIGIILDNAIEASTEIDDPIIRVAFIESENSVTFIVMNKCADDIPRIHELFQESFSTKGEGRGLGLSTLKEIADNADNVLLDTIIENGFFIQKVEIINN

Chain of S. aureus agr-III (O33590 entry or part of it): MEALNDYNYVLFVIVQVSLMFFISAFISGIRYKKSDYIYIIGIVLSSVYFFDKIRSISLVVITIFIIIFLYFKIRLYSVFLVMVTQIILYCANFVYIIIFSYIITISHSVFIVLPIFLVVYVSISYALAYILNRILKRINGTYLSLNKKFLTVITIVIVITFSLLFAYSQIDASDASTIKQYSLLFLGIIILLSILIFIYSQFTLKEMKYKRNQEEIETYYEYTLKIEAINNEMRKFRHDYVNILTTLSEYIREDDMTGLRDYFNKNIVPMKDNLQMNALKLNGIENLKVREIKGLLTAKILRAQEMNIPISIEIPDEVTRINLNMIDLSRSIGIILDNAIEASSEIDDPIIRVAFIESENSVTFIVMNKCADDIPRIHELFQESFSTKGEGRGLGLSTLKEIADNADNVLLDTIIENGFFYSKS
Chain of S. aureus agr-IV (Q309Z2 entry or part of it): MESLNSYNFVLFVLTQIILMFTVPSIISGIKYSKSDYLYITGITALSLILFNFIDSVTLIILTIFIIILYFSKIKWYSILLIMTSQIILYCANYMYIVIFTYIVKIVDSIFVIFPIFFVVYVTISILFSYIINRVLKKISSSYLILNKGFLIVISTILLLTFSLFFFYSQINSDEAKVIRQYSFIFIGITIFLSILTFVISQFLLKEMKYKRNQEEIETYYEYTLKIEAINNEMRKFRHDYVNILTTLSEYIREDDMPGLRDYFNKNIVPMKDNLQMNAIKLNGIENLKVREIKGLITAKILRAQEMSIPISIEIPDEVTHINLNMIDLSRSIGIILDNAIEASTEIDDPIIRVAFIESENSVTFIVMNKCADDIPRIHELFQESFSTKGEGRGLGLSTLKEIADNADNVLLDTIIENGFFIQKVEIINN
Chain of SA AgrC-III (O33590 entry or part of it): as the sequence (O33590 entry or part of it) above
Chain of S. epidermidis agr-III (Q8VSX2 entry or part of it): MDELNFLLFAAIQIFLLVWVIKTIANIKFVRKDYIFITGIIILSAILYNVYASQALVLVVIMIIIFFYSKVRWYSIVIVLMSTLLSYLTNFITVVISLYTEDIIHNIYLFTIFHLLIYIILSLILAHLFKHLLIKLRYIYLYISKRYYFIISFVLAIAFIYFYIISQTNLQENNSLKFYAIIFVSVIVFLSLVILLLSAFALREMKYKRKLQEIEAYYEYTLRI
Chain of S. epidermidis agr-I (Q5HMY3 entry or part of it): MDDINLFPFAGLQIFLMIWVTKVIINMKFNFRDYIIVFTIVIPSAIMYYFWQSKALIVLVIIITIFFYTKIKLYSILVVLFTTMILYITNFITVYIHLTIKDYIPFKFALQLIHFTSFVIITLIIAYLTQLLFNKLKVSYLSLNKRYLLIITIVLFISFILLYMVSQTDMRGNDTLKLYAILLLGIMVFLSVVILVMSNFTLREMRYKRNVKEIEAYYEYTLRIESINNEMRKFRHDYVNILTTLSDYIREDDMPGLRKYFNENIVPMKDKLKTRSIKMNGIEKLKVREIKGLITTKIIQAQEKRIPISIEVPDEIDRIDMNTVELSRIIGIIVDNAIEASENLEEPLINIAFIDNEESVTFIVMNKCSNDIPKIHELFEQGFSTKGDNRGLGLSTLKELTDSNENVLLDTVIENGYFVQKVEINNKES
Chain of S. aureus agr-I (O07911 entry or part of it): as the sequence (O07911 entry or part of it) above
Chain of SA AgrC-IV (Q309Z2 entry or part of it): as the sequence (Q309Z2 entry or part of it) above
Chain of S. lugdunensis agr-I (Q8VSW5 entry or part of it): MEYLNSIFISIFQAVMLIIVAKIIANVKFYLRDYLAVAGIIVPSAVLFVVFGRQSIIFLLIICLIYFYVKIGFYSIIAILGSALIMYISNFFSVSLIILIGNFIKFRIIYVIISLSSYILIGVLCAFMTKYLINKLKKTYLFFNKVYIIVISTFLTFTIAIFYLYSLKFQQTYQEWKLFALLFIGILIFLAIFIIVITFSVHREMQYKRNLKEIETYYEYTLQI
Chain of S. epidermidis agr-II (Q8VSX5 entry or part of it): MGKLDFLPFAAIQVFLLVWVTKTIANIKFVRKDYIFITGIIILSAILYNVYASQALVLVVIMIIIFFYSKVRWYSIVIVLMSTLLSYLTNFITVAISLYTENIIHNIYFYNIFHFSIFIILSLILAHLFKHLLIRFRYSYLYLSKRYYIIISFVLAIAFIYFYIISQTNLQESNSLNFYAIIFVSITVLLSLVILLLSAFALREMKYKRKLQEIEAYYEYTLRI
Chain of SA AgrC-II (O33587 entry or part of it): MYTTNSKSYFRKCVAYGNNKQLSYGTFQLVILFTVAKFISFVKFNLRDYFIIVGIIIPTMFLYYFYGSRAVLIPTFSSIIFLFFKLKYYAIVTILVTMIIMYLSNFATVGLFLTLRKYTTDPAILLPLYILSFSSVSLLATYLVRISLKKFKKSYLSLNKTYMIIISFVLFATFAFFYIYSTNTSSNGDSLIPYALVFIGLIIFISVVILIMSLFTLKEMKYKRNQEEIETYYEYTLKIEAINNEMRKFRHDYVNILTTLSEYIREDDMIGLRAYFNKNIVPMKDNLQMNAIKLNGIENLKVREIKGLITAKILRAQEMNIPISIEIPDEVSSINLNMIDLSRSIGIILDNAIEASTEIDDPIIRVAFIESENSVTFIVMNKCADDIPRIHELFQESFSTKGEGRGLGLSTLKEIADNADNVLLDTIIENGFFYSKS
Chain of S. aureus agr-II (O33587 entry or part of it): as above

On to S. chromogenes AIP-I [compound 27], for which the IC50 at SA AgrC-III is 60 ± 13 nM; on SA AgrC-IV it was 350 ± 85 nM; at SA AgrC-II it was 200 ± 13 nM. Further, the “QS interaction in words (inhibition / activation), S. aureus agr-I” value on S. aureus agr-I is given as “potently inhibited”. For the same substance, the “QS interaction in words (inhibition / activation), S. epidermidis agr-II” value at S. epidermidis agr-II was “potently inhibited”. For the same substance, the “QS interaction in words (inhibition / activation), S. epidermidis agr-III” value at S. epidermidis agr-III is given as “potently inhibited”. Further, the “QS interaction in words (inhibition / activation), S. aureus agr-IV” value at S. aureus agr-IV is reported as “potently inhibited”. Besides, at S. epidermidis agr-I, the “QS interaction in words (inhibition / activation), S. epidermidis agr-I” value is “potently inhibited”. In addition, the “QS interaction in words (inhibition / activation), S. lugdunensis agr-I” value on S. lugdunensis agr-I is reported as “only weakly inhibited”. In addition, on S. aureus agr-II, the “QS interaction in words (inhibition / activation), S. aureus agr-II” value is on record as “potently inhibited”. The “QS interaction in words (inhibition / activation), S. aureus agr-III” value at S. aureus agr-III is given as “potently inhibited”.

For the substance S. hyicus AIP-I [compound 26], the figures for the IC50 at SA AgrC-III, at SA AgrC-IV and on SA AgrC-II were 4 ± 0.8 nM, 180 ± 33 nM and 350 ± 90 nM, respectively. The “QS interaction in words (inhibition / activation), S. aureus agr-I” value at S. aureus agr-I was “potently inhibited”. In addition, on S. epidermidis agr-II, the “QS interaction in words (inhibition / activation), S. epidermidis agr-II” value was “potently inhibited”. Also, the “QS interaction in words (inhibition / activation), S. epidermidis agr-III” value on S. epidermidis agr-III is recorded as “potently inhibited”. In addition, the “QS interaction in words (inhibition / activation), S. aureus agr-IV” value on S. aureus agr-IV is on record as “potently inhibited”. The “QS interaction in words (inhibition / activation), S. epidermidis agr-I” value on S. epidermidis agr-I was “potently inhibited”. In addition, the “QS interaction in words (inhibition / activation), S. lugdunensis agr-I” value at S. lugdunensis agr-I was “only weakly inhibited”. Moreover, the “QS interaction in words (inhibition / activation), S. aureus agr-II” value at S. aureus agr-II was “potently inhibited”. The “QS interaction in words (inhibition / activation), S. aureus agr-III” value at S. aureus agr-III is “potently inhibited”.

Consider “S. lugdunensis AIP-II (DMCNGYF; not fully specified; cyclic: thiolactone between Cys3 side-chain thiol and C-terminal Phe7 carboxyl; free N-terminus) [compound 9]”, for which the IC50 in the test with SA AgrC-I was above 1000 nM.

Regarding “S. saprophyticus AIP-I (INPCFGYT; not fully specified; cyclic: thiolactone between Cys4 side-chain thiol and C-terminal Thr8 carboxyl; free N-terminus) [compound 19]”, in the test with SA AgrC-I, the IC50 was 360 ± 30 nM.

With S. simulans AIP-II P4A [compound 39], the “QS interaction in words (inhibition / activation), S. aureus agr-IV” value at S. aureus agr-IV is on record as “activator”. At S. aureus agr-III, the “QS interaction in words (inhibition / activation), S. aureus agr-III” value is “activator”.

For orientation: IC50 means the point on the concentration scale where inhibition reaches its midpoint.
